According to US9884063B2, “Amido-substituted azole compounds” (Bayer Pharma Aktiengesellschaft, priority 2014, dated 2018):

What was measured:
[1] = biological target: T1, TNKS1 (Homo sapiens, UniProt O95271); experiment: Modified TNKS1 Assay 3 (BPS kit #80573, biotin-NAD+, 96 well); assay type: biochemical; details: human TNKS1, BPS kit #80573, 96 well
T1 sequence (O95271 1-1327): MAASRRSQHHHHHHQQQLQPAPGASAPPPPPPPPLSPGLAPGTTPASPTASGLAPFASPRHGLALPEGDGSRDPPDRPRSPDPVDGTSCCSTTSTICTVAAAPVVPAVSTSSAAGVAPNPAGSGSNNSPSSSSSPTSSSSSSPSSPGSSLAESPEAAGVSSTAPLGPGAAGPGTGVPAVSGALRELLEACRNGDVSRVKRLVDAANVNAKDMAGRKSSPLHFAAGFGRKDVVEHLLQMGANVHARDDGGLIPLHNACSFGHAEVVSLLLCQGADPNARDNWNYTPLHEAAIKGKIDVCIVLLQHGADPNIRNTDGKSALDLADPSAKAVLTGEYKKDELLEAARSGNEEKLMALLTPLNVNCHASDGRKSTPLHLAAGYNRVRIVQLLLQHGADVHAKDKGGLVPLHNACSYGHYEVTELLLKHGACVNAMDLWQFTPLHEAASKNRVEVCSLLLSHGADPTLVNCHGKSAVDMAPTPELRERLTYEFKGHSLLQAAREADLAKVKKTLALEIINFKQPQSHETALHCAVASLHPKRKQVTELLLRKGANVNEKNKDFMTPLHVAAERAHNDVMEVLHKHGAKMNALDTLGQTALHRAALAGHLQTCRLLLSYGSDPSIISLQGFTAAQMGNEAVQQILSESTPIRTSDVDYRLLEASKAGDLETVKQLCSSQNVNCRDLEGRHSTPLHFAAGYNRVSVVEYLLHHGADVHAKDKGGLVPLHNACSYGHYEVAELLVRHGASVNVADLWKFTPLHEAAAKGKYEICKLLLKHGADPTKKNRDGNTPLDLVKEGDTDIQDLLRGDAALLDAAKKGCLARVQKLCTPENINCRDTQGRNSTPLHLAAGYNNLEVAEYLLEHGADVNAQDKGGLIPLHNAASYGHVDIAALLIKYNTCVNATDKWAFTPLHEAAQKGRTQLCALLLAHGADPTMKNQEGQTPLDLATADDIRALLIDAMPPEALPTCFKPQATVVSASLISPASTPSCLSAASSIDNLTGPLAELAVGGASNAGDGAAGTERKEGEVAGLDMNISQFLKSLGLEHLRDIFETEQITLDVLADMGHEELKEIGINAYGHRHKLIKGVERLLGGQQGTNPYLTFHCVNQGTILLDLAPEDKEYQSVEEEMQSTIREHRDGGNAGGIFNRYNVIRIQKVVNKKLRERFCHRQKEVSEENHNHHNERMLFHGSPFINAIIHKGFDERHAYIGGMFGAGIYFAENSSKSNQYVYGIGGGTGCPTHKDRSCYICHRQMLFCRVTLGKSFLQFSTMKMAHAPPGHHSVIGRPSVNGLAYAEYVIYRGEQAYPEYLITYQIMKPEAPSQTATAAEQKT
In short: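 Chemiluminescent assay of TNKS1-catalysed ribosylation of a protein substrate with biotin-labelled NAD+, detected via streptavidin-HRP; run per kit protocol. Inhibition lowers the signal, and IC50 is the compound concentration halving the normalised readout.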

[2] = system: wildtype Wnt signaling cascade; experiment: HEK293 TOP Assay (Super TopFlash luciferase reporter, Wnt-3a stimulated); assay type: cell-based; details: HEK293 TOP reporter cell line, Wnt-3a at EC50, 16 hours incubation, compound dilution series 50 μM to 15 nM
In short: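 HEK293 cells stably carrying Super TopFlash (TOP) or FOP reporter, stimulated with recombinant human Wnt-3a (2500–5 ng/ml, two-fold steps). Both lines incubated in parallel with compound from 50 μM to 15 nM (3.16-fold) in CAFTY buffer pH 7.4 with 2 mM Ca2+ and 0.01% BSA; selectivity judged TOP vs FOP.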

[3] = system: HEK293 FOP control reporter cell line; experiment: HEK293 FOP Assay (FOP control vector luciferase reporter); assay type: cell-based; details: Homo sapiens; HEK293 FOP control reporter cell line, 16 hours incubation, compound dilution series 50 μM to 15 nM
In short: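 Stable HEK293 line carrying the FOP vector (randomized, non-functional TCF sites; Geneticin-selected) was run in parallel with the TOP line. Cells were plated 24 h ahead at 10000/well and given recombinant human Wnt-3a at 2500–5 ng/ml. Compounds were tested at 50 μM–15 nM (3.16-fold steps) in CAFTY buffer, pH 7.4, with 2 mM Ca2+ and 0.01% BSA.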

O=C(Nc1ccc(NC(=O)c2nc[nH]c2C(=O)NCCN2CCC(F)(F)CC2)cc1)c1ccc(F)cc1Cl [Example 224, N^4-{4-[(2-chloro-4-fluorobenzoyl)amino]phenyl}-N^5-[2-(4,4-difluoropiperidin-1-yl)ethyl]-1H-imidazole-4,5-dicarboxamide] was tested, and the IC50 [1] was 260 nM, the IC50 ([2]; Homo sapiens, HEK293, 16 h) was 1250 nM and the IC50 [3] was 27000 nM.
O=C(Nc1ccc(NC(=O)c2nc[nH]c2C(=O)NCC2CCOCC2)cc1)c1ccc(F)cc1Cl [Example 233, N^4-{4-[(2-chloro-4-fluorobenzoyl)amino]phenyl}-N^5-(tetrahydro-2H-pyran-4-ylmethyl)-1H-imidazole-4,5-dicarboxamide] gave an IC50 [1] of 480 nM and an IC50 ([2]; Homo sapiens, HEK293, 16 h) of 450 nM.
O=C(Nc1ccc(NC(=O)c2nc[nH]c2C(=O)NCC2CC2)cc1)c1ccc(F)cc1Cl [Example 128, N^4-{4-[(2-chloro-4-fluorobenzoyl)amino]phenyl}-N^5-(cyclopropylmethyl)-1H-imidazole-4,5-dicarboxamide] showed an IC50 [1] greater than 500 nM and an IC50 ([2]; Homo sapiens, HEK293, 16 h) of 260 nM.
With CN(C)CCNC(=O)c1nc[nH]c1C(=O)Nc1ccc(NC(=O)c2ccc(S(C)(=O)=O)cc2Cl)cc1 [Example 54, N^5-(4-{[2-chloro-4-(methylsulfonyl)benzoyl]amino}phenyl)-N^4-[2-(dimethylamino)ethyl]-1H-imidazole-4,5-dicarboxamide] the IC50 [1] was 20 nM and the IC50 ([2]; Homo sapiens, HEK293, 16 h) was 1450 nM.
With CN1CCC(CNC(=O)c2nc[nH]c2C(=O)Nc2ccc(NC(=O)c3ccc(F)cc3Cl)cc2)C1 (stereo not shown) [Example 407, N^5-{4-[(2-chloro-4-fluorobenzoyl)amino]phenyl}-N^4-[(1-methylpyrrolidin-3-yl)methyl]-1H-imidazole-4,5-dicarboxamide] the IC50 [1] was 10 nM and the IC50 ([2]; Homo sapiens, HEK293, 16 h) was 230 nM.
O=C(Nc1ccc(NC(=O)c2nc[nH]c2C(=O)N2CCC2)cc1)c1ccc(F)cc1Cl [Example 142, 5-(azetidin-1-ylcarbonyl)-N-{4-[(2-chloro-4-fluorobenzoyl)amino]phenyl}-1H-imidazole-4-carboxamide] gave an IC50 [1] of 190 nM and an IC50 ([2]; Homo sapiens, HEK293, 16 h) of 120 nM.
O=C(Nc1ccc(NC(=O)c2nc[nH]c2C(=O)NCCN2CC[C@@H](F)C2)cc1)c1ccc(F)cc1Cl [Example 231, N^4-{4-[(2-chloro-4-fluorobenzoyl)amino]phenyl}-N^5-{2-[(3R)-3-fluoropyrrolidin-1-yl]ethyl}-1H-imidazole-4,5-dicarboxamide] showed an IC50 [1] of 170 nM and an IC50 ([2]; Homo sapiens, HEK293, 16 h) of 70 nM.
Work on CC(CN1CCOCC1)NC(=O)c1[nH]cnc1C(=O)Nc1ccc(NC(=O)c2ccc(F)cc2)cc1 (single isomer, unassigned; enantiomer 1) [Example 295, N^4-{4-[(4-fluorobenzoyl)amino]phenyl}-N^5-[1-(morpholin-4-yl)propan-2-yl]-1H-imidazole-4,5-dicarboxamide (enantiomer 1)] yielded an IC50 [1] greater than 500 nM and an IC50 [2] of 690 nM.
With CC(CN1CCOCC1)NC(=O)c1[nH]cnc1C(=O)Nc1ccc(NC(=O)c2ccc(F)cc2Cl)cc1 (single isomer, unassigned; enantiomer 1) [Example 269, N^4-{4-[(2-chloro-4-fluorobenzoyl)amino]phenyl}-N^5-[1-(morpholin-4-yl)propan-2-yl]-1H-imidazole-4,5-dicarboxamide (enantiomer 1)] the IC50 [1] was 80 nM and the IC50 [2] was 440 nM.
CC(C)NCCNC(=O)c1[nH]cnc1C(=O)Nc1ccc(NC(=O)c2ccc(F)cc2Cl)cc1 [Example 288, N^4-{4-[(2-chloro-4-fluorobenzoyl)amino]phenyl}-N^5-[2-(isopropylamino)ethyl]-1H-imidazole-4,5-dicarboxamide] gave an IC50 [1] of 30 nM and an IC50 ([2]; Homo sapiens, HEK293, 16 h) of 990 nM.
O=C(Nc1ccc(NC(=O)c2[nH]cnc2C(=O)N2CC(F)C2)cc1)c1cc(F)c(F)cc1Cl [Example 47, N-{4-[(2-chloro-4,5-difluorobenzoyl)amino]phenyl}-4-[(3-fluoroazetidin-1-yl)carbonyl]-1H-imidazole-5-carboxamide] was tested, and the IC50 [1] was greater than 500 nM and the IC50 ([2]; Homo sapiens, HEK293, 16 h) was 340 nM.
For CNC(=O)c1nc[nH]c1C(=O)Nc1ccc(NC(=O)c2ccccc2Cl)c(OC)c1 [Example 99, N^5-{4-[(2-chlorobenzoyl)amino]-3-methoxyphenyl}-N^4-methyl-1H-imidazole-4,5-dicarboxamide], the IC50 [1] was greater than 500 nM and the IC50 ([2]; Homo sapiens, HEK293, 16 h) was 540 nM.
In the case of CC(C)c1nc(C(=O)Nc2ccc(NC(=O)c3ccc(F)cc3Cl)cc2)c(C(=O)NCCN2CCCCC2)[nH]1 [Example 108, N^4-{4-[(2-chloro-4-fluorobenzoyl)amino]phenyl}-2-isopropyl-N^5-[2-(piperidin-1-yl)ethyl]-1H-imidazole-4,5-dicarboxamide], the IC50 [1] is reported as 460 nM and the IC50 ([2]; Homo sapiens, HEK293, 16 h) is reported as 5000 nM.
O=C(Nc1ccc(NC(=O)c2nc[nH]c2C(=O)NCC(F)F)cc1)c1ccc(F)cc1Cl [Example 139, N^4-{4-[(2-chloro-4-fluorobenzoyl)amino]phenyl}-N^5-(2,2-difluoroethyl)-1H-imidazole-4,5-dicarboxamide] showed an IC50 [1] of 290 nM and an IC50 ([2]; Homo sapiens, HEK293, 16 h) of 360 nM.
O=C(Nc1ccc(NC(=O)c2nc[nH]c2C(=O)NCCO)cc1)c1ccc(F)cc1Cl [Example 132, N^4-{4-[(2-chloro-4-fluorobenzoyl)amino]phenyl}-N^5-(2-hydroxyethyl)-1H-imidazole-4,5-dicarboxamide] gave an IC50 [1] greater than 500 nM and an IC50 ([2]; Homo sapiens, HEK293, 16 h) of 140 nM.
Molecule O=C(Nc1ccc(NC(=O)c2[nH]cnc2C(=O)N2CC(F)C2)cc1)c1ccc(F)cc1Cl [Example 41, N-{4-[(2-chloro-4-fluorobenzoyl)amino]phenyl}-4-[(3-fluoroazetidin-1-yl)carbonyl]-1H-imidazole-5-carboxamide] has an IC50 [1] greater than 500 nM and an IC50 ([2]; Homo sapiens, HEK293, 16 h) of 90 nM.
In the case of O=C(Nc1ccc(NC(=O)c2nc[nH]c2C(=O)NCC2CCOC2)cc1)c1ccc(F)cc1Cl (stereo not shown) [Example 235, N^4-{4-[(2-chloro-4-fluorobenzoyl)amino]phenyl}-N^5-(tetrahydrofuran-3-ylmethyl)-1H-imidazole-4,5-dicarboxamide], the IC50 [1] is reported as 270 nM and the IC50 ([2]; Homo sapiens, HEK293, 16 h) is reported as 240 nM.
Work on CNC(=O)c1nc[nH]c1C(=O)Nc1ccc(NC(=O)c2ccc(OC)cc2Cl)cc1 [Example 246, N^5-{4-[(2-chloro-4-methoxybenzoyl)amino]phenyl}-N^4-methyl-1H-imidazole-4,5-dicarboxamide] yielded an IC50 [1] greater than 500 nM and an IC50 ([2]; Homo sapiens, HEK293, 16 h) of 200 nM.
CNCCNC(=O)c1[nH]cnc1C(=O)Nc1ccc(NC(=O)c2ccc(F)cc2Cl)cc1 [Example 287, N^4-{4-[(2-chloro-4-fluorobenzoyl)amino]phenyl}-N^5-[2-(methylamino)ethyl]-1H-imidazole-4,5-dicarboxamide] showed an IC50 [1] of 80 nM and an IC50 ([2]; Homo sapiens, HEK293, 16 h) of 750 nM.
For CCc1nc(C(=O)Nc2ccc(NC(=O)c3ccc(F)cc3Cl)cc2)c(C(=O)NCCN(C)C)[nH]1 [Example 69, N^4-{4-[(2-chloro-4-fluorobenzoyl)amino]phenyl}-N^5-[2-(dimethylamino)ethyl]-2-ethyl-1H-imidazole-4,5-dicarboxamide], the IC50 [1] was 50 nM and the IC50 ([2]; Homo sapiens, HEK293, 16 h) was 190 nM.
CC(C)(N)CNC(=O)c1ncoc1C(=O)Nc1ccc(NC(=O)c2ccc(F)cc2Cl)cc1 [Example 219, N^4-(2-amino-2-methylpropyl)-N^5-{4-[(2-chloro-4-fluorobenzoyl)amino]phenyl}-1,3-oxazole-4,5-dicarboxamide] showed an IC50 [1] greater than 500 nM and an IC50 ([2]; Homo sapiens, HEK293, 16 h) of 7500 nM.
